Measured values from patent US20230374113A1, “FERRITIN NANOCAGE FUSED WITH PD-L1-BINDING PEPTIDE 1 AND USE THEREOF AS ANTICANCER IMMUNOTHERAPY AGENT” (KYUNGPOOK NATIONAL UNIVERSITY INDUSTRY-ACADEMIC COOPERATION …, priority 2020, published 2023).

Assays:
[1] = tested on: CT-2A cells overexpressing PD-L1; assay: In vitro binding to CT-2A glioma cells; assay type: cell-based, mouse; conditions: 4° C., 1 h; compared to wFTH
Experimental: (§1) Mouse glioma cells, CT-2A or GL26 cells, were treated with PpNF or wild-type ferritin (wFTH) at 4° C. for 1 h; binding was monitored by antiferritin antibody (green). Nuclei were visualized by counterstaining with DAPI (blue). Scale bars: 30 μm.

[2] = tested on: CT26 tumor; assay type: in vivo, BALB/c wildtype mice
Experimental: CT26 cells were injected subcutaneously into the upper right thigh of BALB/c wildtype mice. When the tumor was about 100 mm^3 in size, mice were randomly divided into four groups. […] A total of 10 injections were performed once every two days (once every 4 days, repeated 6 times in total for anti-PD-L1 antibodies) to measure tumor size and weight of mice (FIGS. 7B and 7D). After 3 weeks, the tumor was removed by sacrificing mice and the tumor was weighed (FIG. 7C). The extracellular matrix of the removed tumor was degraded with collagenase to form single cells, and antibodies against labeled proteins of CD4^+ T cells, CD8^+ T cells, and regulatory T cells were each treated to analyze how many T cells are each present in the tumor by flow cytometry (FIGS. 7E to 7G).

[3] = tested on: MCF-7 cells that do not express PD-L1; assay: Culture cell binding assay (confocal) on MCF-7 control cells; assay type: cell-based; conditions: 100 nM, 4° C., 1 hour; PD-L1-negative control cells
[4] = tested on: CT-2A glioma; assay: Antitumor activity in orthotopic CT-2A glioma mouse model; assay type: in vivo, C57BL/6 mice; conditions: 5 mg/kg intravenously three times per week, six injections
Experimental: (A) Experimental scheme for antitumor treatments. CT-2A syngeneic mouse brain tumor cells were implanted into the brains of C57BL/6 mice. Treatments were initiated at 7 days after confirming tumor growth by MRI. PpNF (5 mg/kg, n=3) or wFTH (5 mg/kg, n=3) were intravenously injected three times per week. (B) Representative brain MRI images showing tumor growth at 7, 14, and 21 days. The dotted line indicates the tumor region. (C) Tumor volumes measured by MRI. (D) Body weights. Data represent mean±SEM (*p<0.05; t-test). The data presented are representative of three independent experiments. B6 mice aged 6-8 weeks were anesthetized with an intraperitoneal injection of Zoletil 50 (20 mg/kg, Virba) and Rompun (4 mg/kg, Bayer). For stereotactic intracranial injections of CT-2A cells, the surgical site was shaved and prepared with 70% ethyl alcohol. After disinfection and incision of the skin, tumor cells were stereotaxically implanted in the brain using the following coordinates: AP=+0.2 mm; ML=+2 mm; DV=−3 mm from the bregma. CT-2A cells (10^4 cells) were resuspended in 3 μl of PBS and implanted at an infusion rate of 3 μl/5 min. […] Tumor growth was examined by animal MRI (7T BioSpec 70/20USR) in the tumor-bearing mice using Onis 2.5 viewer software, and tumor volume was calculated (Average tumor cross-sectional area (mm^2)×summed thickness of tumor cross-sections (mm).

[5] = tested on: MDA-MB231 cells expressing PD-L1; assay: Culture cell binding assay (confocal) on MDA-MB231 cells; assay type: cell-based; conditions: 100 nM, 4° C., 1 hour; anti-human ferritin heavy chain antibody staining
Experimental: (§2) Confocal laser scanning microscopy (Confocal) was performed. After culturing triple negative breast cancer cells (MDA-MB 231) or colorectal cancer cells (CT26), a group treated with 25 ng/ml of interferon-γ and a group without treatment were cultured at 37° C. for 24 hours. These cells are cancer cells expressing the PD-L1 receptor and are known to have expression increased upon interferon-γ treatment. […] In order to block nonspecific binding of PD-L1 proteins, blocking was performed using 1% BSA dissolved in PBS at room temperature for 1 hour, then BSA was removed, and PpNF, PpLF, and PpCF (100 nM) were reacted at 4° C. for 1 hour. After washing with PBS, a reaction was performed using anti-human ferritin heavy chain antibodies (1:200 ratio) for 1 hour, followed by staining (green). After fixing with 4% paraformaldehyde, observation was performed under a confocal microscope. To observe the nucleus, DAPI was dissolved in PBS in a ratio of 1:1000, and staining was performed at room temperature for 5-10 minutes (blue).

[6] = biological target: T1, PD-1/PD-L1 binding (Mus musculus, UniProt Q9EP73); assay: Co-culture of CT26 cancer cells and activated CD8+ T cells (immune checkpoint inhibitory function in vitro); assay type: cell-based
T1 construct: endogenous in cells
Experimental: CD8^+ T cells were extracted from the spleen obtained by sacrificing BALB/C mice. Extracted CD8^+ T cells were treated with interleukin-2/interleukin-15 and anti-CD-3 antibody/anti-CD-28 antibody each for 24 hours for activation. Prior to treating activated CD8^+ T cells with CFSE and performing symbiotic culture of tumor cells (CT26, mouse colon cancer), tumor cells were pretreated with anti-PD-L1 antibody, PpNF (25 nM or 50 nM), and PD-L1pep1 (50 nM), respectively, and interactions of PD-L1 of tumor cells and […] CD8^+ T cells were inhibited, respectively. After symbiotic culture for 24 hours, CD8^+ T cells were isolated (FIG. 4A). The degree of CFSE binding to isolated T cells was measured with a flow cytometer (FIG. 4B). In addition, the amount of interferon gamma secreted by isolated T cells was measured using an enzyme-linked immunosorbent assay (FIG. 4C).
CD8^+ T cells isolated from mice were activated (IL-2/IL-15 treatment and anti-CD3/anti-CD28 treatment), labeled with fluorescence (CFSE staining), and cultured with CT26 colorectal cancer cells.

[7] = tested on: CT26 cells expressing PD-L1; assay: Culture cell binding assay (confocal) on CT26 cells; assay type: cell-based, mouse; conditions: 100 nM, 4° C., 1 hour; anti-human ferritin heavy chain antibody staining
Experimental: as §2

[8] = Biotoxicity via blood and serologic analysis; assay type: in vivo, mice
Experimental: After antitumor animal experiments, blood and serum were collected from each group when sacrificing mice, and the amounts of red blood cells, hemoglobin, hematocrit, white blood cells, and neutrophils in the blood, blood urea nitrogen in serum, creatinine, alanine aminotransferase, and aspartate aminotransferase were measured and compared.

[9] = tested on: CD8+ T cells cocultured with CT-2A; assay: Triple coculture of CD8+ T cells with CT-2A glioma cells and primary glia; assay type: cell-based, mouse; conditions: 25 nM, 48 h triple coculture
Experimental: CD8^+ T cells were directly cocultured with CT-2A (A,B) or GL26 (C, D) glioma cells in the presence of glia. Cocultures were treated with 25 nM wild-type nanocage (wFTH), PD-L1pep1 ferritin nanocage (PpNF) or their corresponding buffer (buf), respectively. Fold changes in IFN-γ secretion during triple coculture using (A) CT-2A or (C) GL26 cells with the indicated treatments. T cell-only group was used as a control. (B) Proliferation of CD8^+ T cells during coculture with CT-2A and primary glia. The percentages of daughter cells upon cell division were determined using CellTrace Violet (CTV) dye. (D) Expression of CD107a on the surface of CD8^+ T cells after triple coculture using GL26. The percentages of CD107a^+ populations in live CD8^+ T cells were measured by flow cytometry. All graphs represent mean±SD; n=3 independent wells. […]
(§3) Cocultures were treated with 25 nM ferritin nanocages (PpNF or Pp2NF) including the wild-type nanocage (wFTH) or their corresponding buffer, respectively. […] IFN-γ concentrations were quantified with a mouse IFN-γ ELISA kit (R&D Systems Inc., SMIF00) as previously described. […]
Annexin-V as described above. The percentages of CTV dilution upon cell division were measured by flow cytometry. All flow cytometry data were obtained using a BD FACS Verse cytometer and analyzed by FlowJo software (Tree Star).

[10] = tested on: CD8+ T cells cocultured with GL26; assay: Triple coculture of CD8+ T cells with GL26 glioma cells and primary glia; assay type: cell-based, mouse; conditions: 25 nM, 48 h triple coculture, IFN-γ secretion, CD107a
Experimental: CD8^+ T cells were directly cocultured with CT-2A (A,B) or GL26 (C, D) glioma cells in the presence of glia. Cocultures were treated with 25 nM wild-type nanocage (wFTH), PD-L1pep1 ferritin nanocage (PpNF) or their corresponding buffer (buf), respectively. Fold changes in IFN-γ secretion during triple coculture using (A) CT-2A or (C) GL26 cells with the indicated treatments. T cell-only group was used as a control. (B) Proliferation of CD8^+ T cells during coculture with CT-2A and primary glia. The percentages of daughter cells upon cell division were determined using CellTrace Violet (CTV) dye. (D) Expression of CD107a on the surface of CD8^+ T cells after triple coculture using GL26. The percentages of CD107a^+ populations in live CD8^+ T cells were measured by flow cytometry. All graphs represent mean±SD; n=3 independent wells. (*p<0.05, **p<0.01, ***p<0.001, and ****p<0.0001; multiple comparisons were conducted using one-way ANOVA followed by Tukey's test.)
Primary glia were cultured from C57BL/6 mice, and the cells were seeded in a 96-well flat bottom plate at a density of 10^4 cells/well. […]
as §3

[11] = tested on: GL26 glioblastoma; conditions: mouse, in vivo
Experimental: In addition, the glioblastoma targeting effect of the immune checkpoint blocking nanocage was identified. GL26, a glioblastoma cell line, was injected into the left side of the mouse brain to create an orthotopic GBM model and fluorescently labeled PBP1-N-FtH was injected into the tail vein [control: saline, ferritin].

[12] = Dynamic light scattering (DLS) analysis of cage size; assay type: physicochemical
[13] = tested on: GL26 cells overexpressing PD-L1; assay: In vitro binding to GL26 glioma cells; assay type: cell-based, mouse; conditions: 4° C., 1 h; compared to wFTH
Experimental: as §1

[14] = tested on: CT-2A glioma; parameters: species or system C57BL/6 mice; conditions: mouse, in vivo, iv
Experimental: (A) Representative images of the upper body of mice. The yellow circle indicates the tumor. C57BL/6 mice were implanted with CT-2A glioma cells (3×10^5). At 14 days after intracranial inoculation, the tumor-bearing mice were intravenously injected with Flamma 675-labeled PpNF or wFTH followed by in vivo scanning with the IVIS imaging system. (B) Ex vivo biodistribution was examined at 24 h postinjection.
B6 mice aged 6-8 weeks were anesthetized with an intraperitoneal injection of Zoletil 50 (20 mg/kg, Virba) and Rompun (4 mg/kg, Bayer). For stereotactic intracranial injections of CT-2A cells, the surgical site was shaved and prepared with 70% ethyl alcohol. After disinfection and incision of the skin, tumor cells were stereotaxically implanted in the brain using the following coordinates: AP=+0.2 mm; ML=+2 mm; DV=−3 mm from the bregma. CT-2A cells (10^4 cells) were resuspended in 3 μl of PBS and implanted at an infusion rate of 3 μl/5 min.
For in vivo targeting of PD-L1pep ferritin nanocages in intracranial brain tumors, CT-2A cells (3×10^5 cells) were resuspended in 3 μl of PBS and implanted in the brain. At 14 days after implantation of CT-2A cells, Flamma 675-labeled Pp1NF, Pp2NF, and wt ferritin were intravenously injected (n=3 mice/group). […] Fluorescence emission values were analyzed as photons per second per centimeter squared per steradian (p/s/cm^2/sr).

T1 sequence (Q9EP73 19-290): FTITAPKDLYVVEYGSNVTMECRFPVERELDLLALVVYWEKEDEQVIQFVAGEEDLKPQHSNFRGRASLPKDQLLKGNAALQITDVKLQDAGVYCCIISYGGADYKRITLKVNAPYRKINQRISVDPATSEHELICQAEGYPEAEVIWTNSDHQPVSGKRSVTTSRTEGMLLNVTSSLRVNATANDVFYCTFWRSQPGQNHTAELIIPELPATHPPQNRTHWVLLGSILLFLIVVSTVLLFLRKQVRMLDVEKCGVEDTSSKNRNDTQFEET

## PpNF: Ferritin nanocage: PD-L1-binding peptide 1 (CLQKTPKQC) inserted at nitrogen terminal of human ferritin heavy chain fragment (1-161) with GG linker
[1]
  binding in CT-2A glioma cells: bound specifically
[2]; 10 mg/kg tail vein, 10 injections once every two days
  tumor growth: significantly inhibited tumor growth compared to the control
[2]; after 3 weeks
  weight of the tumor: much smaller
[2]; flow cytometry
  proportion of CD8+ T cells in the tumor: increasing the proportion of CD8^+ T cells in the tumor
  ratio of CD8+ T cells and regulatory T cells in the tumor: significantly increased compared to the control
[3]
  binding in MCF-7 cells: the binding did not take place
[4]
  antitumor effects (tumor volume by MRI): showed antitumor effects
[5]
  binding in MDA-MB231 cells: bound
[6]; 24 hours co-culture, PpNF 25 nM or 50 nM
  IFN-γ secreted by T cells (ELISA): IFN-γ increment
[6]; versus PD-L1 antibody, PD-L1pep1 (50 nM)
  immune checkpoint inhibitory effect versus comparators: better than that of PD-L1 antibody or PD-L1pep1
[7]
  binding in CT26 cells: bound
[8]; blood after antitumor animal experiments
  hematologic change: no significant hematologic change
[8]; serum after antitumor animal experiments
  hepatotoxicity or nephrotoxicity (BUN, creatinine, ALT, AST): No hepatotoxicity or nephrotoxicity was observed
[9]; CTV dye
  proliferation of CD8+ T cells: increased
[9]; IFN-γ secretion
  activity of CD8+ T cells: increased
[10]
  activity of CD8+ T cells: increased
[11]
  glioblastoma targeting (brain fluorescence signal): targeted to the tumor site on the left side of the brain
[12]
  cage size (DLS): about 24 nm
[13]
  binding in GL26 glioma cells: bound specifically
[14]
  BBB crossing: crossed the BBB
  accumulation in glioblastoma in the brain: accumulated in glioblastoma expressed in the brain by 24 hours
